From paper PMC10197018 (Pediatric blood & cancer, 2021)
Where two headings read alike, the source gives them in different places.

Columns and labels:
[1] = cited from earlier work
[2] = tested on: colon carcinoma model; conditions: colon carcinoma model ref 34; cited from earlier work
[3] = tested on: solid tumors; conditions: cited from earlier work
[4] = cited from earlier work; remark: listed apart in the source
[5] = human, in vivo, po, 70 mg/m2
[6] = single-agent sorafenib, same dose regimen ref 17; cited from earlier work
[7] = clinical; conditions: human, plasma, oral
[8] = Plasma pharmacokinetics of sorafenib given with irinotecan; conditions: pediatric patients, combination therapy
[9] = single agent, pediatric phase 1 trials ref 26, 27, 44

In the case of `CCc1c2c(nc3ccc(OC(=O)N4CCC(N5CCCCC5)CC4)cc13)-c1cc3c(c(=O)n1C2)COC(=O)[C@]3(O)CC` [Irinotecan], the “MTD of oral irinotecan with temozolomide and vincristine” value ([1]; 5 days for 2 weeks with temozolomide 100 mg/m^2/day ref 33) is listed as 35 mg/m^2/daily, the “MTD, short course oral irinotecan” value ([1]; daily for 5 days every 21 days, solid tumors, patients < 65 years of age ref 31) is listed as 65 mg/m^2/dose and the “MTD, protracted course of oral irinotecan” value ([1]; daily × 5 days for 2 weeks, pediatric patients, with cefixime ref 30) is listed as 60 mg/m^2/dose. For the same compound, the “MTD of oral irinotecan with temozolomide and vincristine” value ([1]; daily × 5 days with temozolomide 150 mg/m^2/day ref 33) was 90 mg/m^2/daily, the “MTD, protracted course of oral irinotecan with temozolomide” value ([1]; patients with neuroblastoma ref 32) was 60 mg/m^2/day and the growth delay [2] was 71%. The “mixed response and/or SD rates” value [3, 9] was 20–26%, the partial response rates [3, 9] was 0 to 6% and the AUC(0-inf) (human, plasma, po, 70 mg/m2) was 594 ± 299 ng·h/mL. The CMAX (human, plasma, po, 70 mg/m2) was 93.9 ± 60.8 ng/mL, the Tmax (human, plasma, po, 70 mg/m2) was 1.97 ± 0.85 h and the “mean dose-normalized CMAX (CMAX/D)” value (oral irinotecan 70 mg/m^2 with sorafenib, range 0.18–3.49) was 1.14 ng/mL/mg. For the same compound, the “dose-normalized AUCINF (AUCINF/D)” value (oral irinotecan 70 mg/m^2 with sorafenib, range 1.7–19.5) was 7.1 ng·h/mL/mg and the absolute oral bioavailability ([4]; irinotecan solution ref 47) was 17%.
In the case of `CCc1c2c(nc3ccc(O)cc13)-c1cc3c(c(=O)n1C2)COC(=O)[C@]3(O)CC` [SN38, 7-ethyl-10-hydroxy camptothecin], the “mean extent of metabolic conversion from SN38 to SN38-G” value (oral irinotecan 70 mg/m^2 with sorafenib, pediatric patients) is listed as 3.73, the “extent of metabolic conversion from SN38 to SN38-G” value ([4]; adults ref 45, 46) is listed as 6.9–13.4 and the CMAX ([4]; oral irinotecan 60 mg/m^2 in adults ref 47) is listed as 7.4 ± 4.4 ng/mL. For the same compound, the AUCINF ([4]; oral irinotecan study in adults ref 47) was 58.7 ± 31 ng·h/mL, the t1/2 ([4]; oral study in adults ref 47) was 11.9 h and the “extent of metabolic conversion from SN38 to SN38-G” value ([4]; other pediatric reports ref 48, 49) was 1.6–4.1. For the same compound, the t1/2 ([4]; reported pediatric ranges ref 48) was 7.3 to 18.5 h.
For `CCc1c2c(nc3ccc(O[C@@H]4O[C@H](C(=O)O)[C@@H](O)[C@H](O)[C@H]4O)cc13)-c1cc3c(c(=O)n1C2)COC(=O)[C@]3(O)CC` [SN38-G], the AUCINF [5] was 62.1 ± 35.4 (57.0%) hr•ng/mL, the CMAX [5] was 5.50 ± 3.38 (61.4%) ng/mL and the Tmax [5] was 3.17 ± 1.09 (34.2%) hr. The AUCINF ([4]; human, in vivo) was 30.8 to 153 ng·h/mL, the CMAX ([4]; in vivo, po, 60 mg/m2) was 21.7 ± 15.2 ng/mL and the AUCINF ([4]; in vivo, po) was 356 ± 348 ng·h/mL.
In the case of `CNC(=O)c1cc(Oc2ccc(NC(=O)Nc3ccc(Cl)c(C(F)(F)F)c3)cc2)ccn1` [Sorafenib], the growth delay [2] is given as 100%, the “prolonged SD” value ([3]; phase 2, Wilms tumor, 2 of 10 patients ref 18) is given as 20% and the responses ([3]; phase 2, cohort with rhabdomyosarcoma ref 18) is given as “no responses”. For the same compound, the Tmax [6] was 4.98 h, the “mean CMAX/D” value [6] was 8.33 ng/mL/mg and the Tmax [7] was 6.4 h. For the same compound, the “age-dependent difference in AUC” value [8] was “no significant age-dependent difference”.
